Data: ChEMBL document CHEMBL1153901, “Synthesis and antibacterial activity evaluation of metronidazole-triazole conjugates” (Bioorg Med Chem Lett, 2009)
In brackets after ≈: the same amount, converted by molar mass. Activity calls are given as the source filed them. The calls are words filed in the database; no cut-off is given here.

Legend:
Format in all cases: functional, organism-based
[1] = test system: Escherichia coli; experiment: Antibacterial activity against Escherichia coli after 24 hrs by NCCLS microdilution method
[2] = test system: Pseudomonas aeruginosa; experiment: Antibacterial activity against Pseudomonas aeruginosa after 24 hrs by […] microdilution method
[3] = test system: Staphylococcus epidermidis; experiment: Antibacterial activity against Staphylococcus epidermidis after 24 hrs by […] microdilution method
[4] = test system: Staphylococcus aureus; experiment: Antibacterial activity against Staphylococcus aureus after 24 hrs by […] microdilution method
[5] = test system: Candida albicans; experiment: Antifungal activity against Candida albicans
[6] = test system: Nakaseomyces glabratus; experiment: Antifungal activity against Candida glabrata
[7] = test system: Geotrichum candidum; experiment: Antifungal activity against Geotrichum candidum

IC50 [1] | IC50 [2] | IC50 [3] | IC50 [4] | SMILES | Activity [5] | Activity [6] | Activity [7]
0.67 µg/mL (≈ 2.04 µM) | 0.13 µg/mL (≈ 0.396 µM) | > 500 µg/mL | > 500 µg/mL | Cc1ncc([N+](=O)[O-])n1CCn1cc(COc2ccccc2)nn1 | – | – | –
> 500 µg/mL | > 500 µg/mL | > 500 µg/mL | > 500 µg/mL | Cc1ncc([N+](=O)[O-])n1CCn1cc(CCO)nn1 | – | – | –
0.09 µg/mL (≈ 0.203 µM) | 0.06 µg/mL (≈ 0.135 µM) | 0.08 µg/mL (≈ 0.18 µM) | 0.12 µg/mL (≈ 0.27 µM) | CN(C)[C@@H]1C(O)=C(C(N)=O)C(=O)[C@@]2(O)C(O)=C3C(=O)c4c(O)cccc4[C@@](C)(O)[C@H]3C[C@@H]12 [TETRACYCLINE] | – | – | –
> 500 µg/mL | > 500 µg/mL | > 500 µg/mL | > 500 µg/mL | Cc1ncc([N+](=O)[O-])n1CCn1cc(COc2ccccc2Cl)nn1 | – | – | –
0.028 µg/mL (≈ 0.0818 µM) | > 500 µg/mL | > 500 µg/mL | > 500 µg/mL | Cc1ccccc1OCc1cn(CCn2c([N+](=O)[O-])cnc2C)nn1 | inactive | inactive | inactive
> 500 µg/mL | > 500 µg/mL | > 500 µg/mL | > 500 µg/mL | Cc1ncc([N+](=O)[O-])n1CCn1cc(COc2ccccc2[N+](=O)[O-])nn1 | – | – | –
0.067 µg/mL (≈ 0.196 µM) | 0.068 µg/mL (≈ 0.199 µM) | > 500 µg/mL | 0.26 µg/mL (≈ 0.759 µM) | Cc1cccc(OCc2cn(CCn3c([N+](=O)[O-])cnc3C)nn2)c1 | inactive | inactive | inactive
0.13 µg/mL (≈ 0.436 µM) | 0.13 µg/mL (≈ 0.436 µM) | > 500 µg/mL | > 500 µg/mL | Cc1ncc([N+](=O)[O-])n1CCn1cc(-c2ccccc2)nn1 | inactive | inactive | inactive
> 500 µg/mL | > 500 µg/mL | > 500 µg/mL | 0.31 µg/mL (≈ 1.04 µM) | Cc1ncc([N+](=O)[O-])n1CCn1cc(-c2cccnc2)nn1 | inactive | inactive | inactive
> 500 µg/mL | 0.18 µg/mL (≈ 0.562 µM) | > 500 µg/mL | > 500 µg/mL | Cc1ncc([N+](=O)[O-])n1CCn1cc(C2(O)CCCCC2)nn1 | inactive | inactive | inactive
0.003 µg/mL (≈ 0.00827 µM) | 0.02 µg/mL (≈ 0.0551 µM) | > 500 µg/mL | 0.13 µg/mL (≈ 0.358 µM) | Cc1ncc([N+](=O)[O-])n1CCn1cc(COc2ccc(Cl)cc2)nn1 | inactive | inactive | inactive
> 500 µg/mL | > 500 µg/mL | > 500 µg/mL | > 500 µg/mL | CC(=O)c1ccc(OCc2cn(CCn3c([N+](=O)[O-])cnc3C)nn2)cc1 | – | – | –
0.091 µg/mL (≈ 0.361 µM) | 0.18 µg/mL (≈ 0.714 µM) | 0.35 µg/mL (≈ 1.39 µM) | 0.35 µg/mL (≈ 1.39 µM) | Cc1ncc([N+](=O)[O-])n1CCn1cc(CO)nn1 | inactive | inactive | inactive
0.07 µg/mL (≈ 0.196 µM) | 0.07 µg/mL (≈ 0.196 µM) | > 500 µg/mL | > 500 µg/mL | Cc1ncc([N+](=O)[O-])n1CCn1cc(COc2ccc(C=O)cc2)nn1 | inactive | inactive | inactive
> 500 µg/mL | > 500 µg/mL | > 500 µg/mL | > 500 µg/mL | Cc1ncc([N+](=O)[O-])n1CCn1cc(CBr)nn1 | – | – | –
> 500 µg/mL | > 500 µg/mL | > 500 µg/mL | > 500 µg/mL | COCc1cn(CCn2c([N+](=O)[O-])cnc2C)nn1 | – | – | –
> 500 µg/mL | > 500 µg/mL | > 500 µg/mL | > 500 µg/mL | CCC(=O)OCc1cn(CCn2c([N+](=O)[O-])cnc2C)nn1 | – | – | –
> 500 µg/mL | > 500 µg/mL | > 500 µg/mL | > 500 µg/mL | Cc1ncc([N+](=O)[O-])n1CCn1cc(COC2CCCCO2)nn1 (stereo not drawn) | – | – | –
> 500 µg/mL | > 500 µg/mL | > 500 µg/mL | > 500 µg/mL | Cc1ncc([N+](=O)[O-])n1CCn1cc(COc2ccc([N+](=O)[O-])cc2)nn1 | – | – | –
0.06 µg/mL (≈ 0.175 µM) | 0.03 µg/mL (≈ 0.0876 µM) | > 500 µg/mL | 0.13 µg/mL (≈ 0.38 µM) | Cc1ccc(OCc2cn(CCn3c([N+](=O)[O-])cnc3C)nn2)cc1 | inactive | inactive | inactive
0.12 µg/mL (≈ 0.401 µM) | 0.13 µg/mL (≈ 0.434 µM) | > 500 µg/mL | 0.13 µg/mL (≈ 0.434 µM) | Cc1ncc([N+](=O)[O-])n1CCn1cc(-c2ccccn2)nn1 | inactive | inactive | inactive
> 500 µg/mL | > 500 µg/mL | > 500 µg/mL | > 500 µg/mL | Cc1ncc([N+](=O)[O-])n1CCn1cc(COc2ccccc2C=O)nn1 | – | – | –
